Source: US20240018158A1, “BRM TARGETING COMPOUNDS AND ASSOCIATED METHODS OF USE” (Prelude Therapeutics Incorporated, priority 2020, published 2024)

How the values were obtained:
[1] = target: SMARCA2 (Homo sapiens (Human), UniProt P51531); assay: SMARCA2 HiBiT degradation assay in HeLa cells; format: cell-based; details: 18 hours; for DC50: read-out: DC50 (SM2-HeLa) SMARCA2 degradation potency; for Dmax: read-out: Dmax % (SM2-HeLa) maximum SMARCA2 degradation within the concentrations tested
Method: (§1) HiBiT peptide knock-in of SMARCA2 in LgBiT expressing HEK293T cells was performed by CRISPR-mediated tagging system as described Promega. The homozygous HiBiT knock-in on c-terminus SMARCA2 was confirmed by sanger sequence. SMARCA2-HiBiT knock-in Hela monoclonal cell (CS302366) and SMARCA4-HiBiT knock-in Hela monoclonal cell (CS3023226) were purchased from Promega. The heterozygous HiBiT-knock-in was confirmed by sanger sequence in both SMARCA2-HiBiT and SMARCA4-HiBiT monoclonal cells.
(§2) Dispense 10 μL aliquot of prepared Hela-SMARCA2-HiBiT or Hela-SMARCA4-HiBiT cells (1:1 ratio of cells:Trypan Blue (#1450013, Bio-Rad)) onto cell counting slide (#145-0011, Bio-Rad) and obtain cell density and cell viability using cell counter (TC20, Bio-Rad). Remove appropriate volume of resuspended cells from culture flask to accommodate 2500 cells/well @ 20 μL/well. Transfer Hela-HiBiT cells to 50 ml conical (#430290, Corning). Spin down at 1000 rpm for 5 min using tabletop centrifuge (SPINCHRON 15, Beckman). Discard supernatant and resuspend cell pellet in modified EMEM (#30-2003, ATCC) cell culture media containing 10% FBS (F2422-500ML, Sigma), and 1×Penicillin/Streptomycin (200 g/1) (30-002-CI, Corning) to a cell density of 125,000 cells/ml. Dispense 20 μL of resuspended Hela-HiBit cells per well in 384-well TC treated plate (#12-565-343, Thermo Scientific) using standard cassette (#50950372, Thermo Scientific) on Multidrop Combi (#5840310, Thermo Scientific) inside laminar flow cabinet. Dispense test compounds onto plates using digital liquid dispenser (D300E, Tecan). Incubate plates in humidified tissue culture incubator @37° C. for 18 hours. Add 20 ul of prepared Nano-Glo® HiBiT Lytic detection buffer (N3050, Promega) to each well of 384-well plate using small tube cassette (#24073295, Thermo Scientific) on Multidrop Combi, incubate @ RT for 30-60 min. Read plates on microplate reader (Envision 2105, PerkinElmer) using 384 well Ultra-Sensitive luminescence mode. Raw data files and compound information reports are swept into centralized data lake and deconvoluted using automated scripts designed by TetraScience, Inc. Data analysis, curve-fitting and reporting done in Dotmatics Informatics Suite using Screening Ultra module.

[2] = target: SMARCA4 (Homo sapiens (Human), UniProt P51532); assay: SMARCA4 HiBiT degradation assay in HeLa cells; format: cell-based; details: 18 hours; for DC50: read-out: DC50 (SM4-HeLa) SMARCA4 degradation potency; for Dmax: HeLa, read-out: Dmax % (SM4-HeLa) maximum SMARCA4 degradation within the concentrations tested
Sequence of SMARCA4 (P51532 whole entry): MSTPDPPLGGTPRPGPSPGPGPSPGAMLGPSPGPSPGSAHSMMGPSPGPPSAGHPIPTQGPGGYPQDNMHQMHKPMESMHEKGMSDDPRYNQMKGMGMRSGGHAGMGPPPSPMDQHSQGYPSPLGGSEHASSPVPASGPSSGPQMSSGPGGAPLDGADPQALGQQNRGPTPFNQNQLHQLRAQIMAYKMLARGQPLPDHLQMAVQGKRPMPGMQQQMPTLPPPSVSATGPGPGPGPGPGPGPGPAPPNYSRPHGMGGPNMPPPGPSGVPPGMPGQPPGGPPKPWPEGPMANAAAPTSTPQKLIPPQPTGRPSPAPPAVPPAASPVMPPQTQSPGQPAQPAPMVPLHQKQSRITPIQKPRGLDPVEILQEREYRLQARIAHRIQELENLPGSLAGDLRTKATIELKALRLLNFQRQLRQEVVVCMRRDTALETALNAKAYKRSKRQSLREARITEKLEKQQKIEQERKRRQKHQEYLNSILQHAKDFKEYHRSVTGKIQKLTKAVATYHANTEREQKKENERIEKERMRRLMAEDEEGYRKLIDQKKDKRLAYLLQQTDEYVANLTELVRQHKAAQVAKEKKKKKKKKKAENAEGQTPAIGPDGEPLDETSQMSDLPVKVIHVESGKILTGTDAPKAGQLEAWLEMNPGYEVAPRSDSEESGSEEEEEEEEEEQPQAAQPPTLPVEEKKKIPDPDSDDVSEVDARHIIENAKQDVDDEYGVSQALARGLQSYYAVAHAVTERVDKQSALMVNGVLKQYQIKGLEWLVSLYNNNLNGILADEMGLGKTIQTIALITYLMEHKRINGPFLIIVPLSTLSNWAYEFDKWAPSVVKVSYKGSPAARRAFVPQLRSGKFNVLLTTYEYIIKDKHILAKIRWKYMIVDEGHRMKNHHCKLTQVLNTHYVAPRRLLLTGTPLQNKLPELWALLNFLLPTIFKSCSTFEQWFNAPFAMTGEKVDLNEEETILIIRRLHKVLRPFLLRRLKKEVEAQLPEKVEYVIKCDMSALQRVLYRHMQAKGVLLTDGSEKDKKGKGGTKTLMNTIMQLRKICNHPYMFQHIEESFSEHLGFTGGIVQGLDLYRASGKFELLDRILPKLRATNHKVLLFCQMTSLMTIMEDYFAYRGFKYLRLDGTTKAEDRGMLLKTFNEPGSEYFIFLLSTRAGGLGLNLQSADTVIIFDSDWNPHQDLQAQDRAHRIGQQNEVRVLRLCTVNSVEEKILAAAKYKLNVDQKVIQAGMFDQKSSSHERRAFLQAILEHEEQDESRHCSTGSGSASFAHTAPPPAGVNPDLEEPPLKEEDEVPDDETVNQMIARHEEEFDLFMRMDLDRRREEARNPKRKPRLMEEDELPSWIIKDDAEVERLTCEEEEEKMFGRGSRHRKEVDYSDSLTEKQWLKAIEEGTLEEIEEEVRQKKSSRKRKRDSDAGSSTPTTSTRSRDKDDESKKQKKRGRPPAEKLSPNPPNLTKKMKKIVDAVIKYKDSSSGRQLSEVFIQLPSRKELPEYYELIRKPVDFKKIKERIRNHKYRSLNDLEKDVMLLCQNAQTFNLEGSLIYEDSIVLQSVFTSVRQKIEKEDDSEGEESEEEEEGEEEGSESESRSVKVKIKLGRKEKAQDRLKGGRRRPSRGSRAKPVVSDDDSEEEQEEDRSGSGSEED
Method: as §1, §2

Sequence of SMARCA2 (P51531 whole entry): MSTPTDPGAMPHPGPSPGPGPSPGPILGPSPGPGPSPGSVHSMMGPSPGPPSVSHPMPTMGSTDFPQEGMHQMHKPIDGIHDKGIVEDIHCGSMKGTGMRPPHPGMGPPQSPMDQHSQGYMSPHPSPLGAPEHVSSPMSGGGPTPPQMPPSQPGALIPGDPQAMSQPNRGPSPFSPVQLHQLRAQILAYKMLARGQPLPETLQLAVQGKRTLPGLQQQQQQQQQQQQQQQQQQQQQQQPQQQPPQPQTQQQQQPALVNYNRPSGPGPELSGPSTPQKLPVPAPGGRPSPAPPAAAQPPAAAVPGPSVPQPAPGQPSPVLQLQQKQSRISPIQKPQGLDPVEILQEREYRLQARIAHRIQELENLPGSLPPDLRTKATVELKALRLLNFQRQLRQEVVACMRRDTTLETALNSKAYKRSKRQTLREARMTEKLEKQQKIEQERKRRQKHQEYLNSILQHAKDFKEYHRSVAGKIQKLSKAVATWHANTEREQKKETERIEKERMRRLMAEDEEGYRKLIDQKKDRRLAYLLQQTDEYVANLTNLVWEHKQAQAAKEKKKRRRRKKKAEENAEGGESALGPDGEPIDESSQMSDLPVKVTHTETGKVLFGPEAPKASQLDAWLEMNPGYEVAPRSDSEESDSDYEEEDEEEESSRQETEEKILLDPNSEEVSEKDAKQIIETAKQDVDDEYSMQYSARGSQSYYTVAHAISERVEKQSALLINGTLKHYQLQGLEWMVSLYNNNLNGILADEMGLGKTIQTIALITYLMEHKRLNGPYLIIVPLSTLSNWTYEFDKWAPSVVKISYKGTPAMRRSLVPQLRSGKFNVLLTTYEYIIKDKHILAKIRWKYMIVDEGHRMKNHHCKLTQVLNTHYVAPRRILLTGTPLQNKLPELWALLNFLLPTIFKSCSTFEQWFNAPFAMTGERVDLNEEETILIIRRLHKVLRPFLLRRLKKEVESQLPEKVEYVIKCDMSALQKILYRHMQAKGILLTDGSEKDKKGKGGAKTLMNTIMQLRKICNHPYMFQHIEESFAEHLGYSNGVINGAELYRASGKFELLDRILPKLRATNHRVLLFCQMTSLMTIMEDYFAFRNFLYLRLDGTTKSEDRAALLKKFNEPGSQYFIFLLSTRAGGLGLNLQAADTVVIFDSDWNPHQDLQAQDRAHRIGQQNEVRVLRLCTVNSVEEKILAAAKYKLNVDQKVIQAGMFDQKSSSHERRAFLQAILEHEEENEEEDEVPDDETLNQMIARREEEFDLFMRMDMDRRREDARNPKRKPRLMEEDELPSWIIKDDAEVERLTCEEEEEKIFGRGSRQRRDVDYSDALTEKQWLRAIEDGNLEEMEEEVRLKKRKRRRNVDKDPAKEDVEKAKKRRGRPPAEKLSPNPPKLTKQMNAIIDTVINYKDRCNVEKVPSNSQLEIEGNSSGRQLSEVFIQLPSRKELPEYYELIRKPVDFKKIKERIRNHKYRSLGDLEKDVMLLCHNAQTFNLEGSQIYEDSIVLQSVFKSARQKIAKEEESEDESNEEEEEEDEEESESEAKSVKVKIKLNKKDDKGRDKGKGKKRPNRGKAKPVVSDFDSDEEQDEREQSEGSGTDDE

Structure (SMILES)	DC50 [1]	Dmax [1]	DC50 [2]	Dmax [2]	Dmax % (SM4-HeLa) maximum SMARCA4 degradation within the concentrations tested [2]
Cc1ncsc1-c1ccc([C@H](C)NC(=O)[C@@H]2C[C@@H](O)CN2C(=O)[C@@H](c2cc(OC(C)CN3CCCC(CN4CCN5c6cc(-c7ccccc7O)nnc6NC[C@H]5C4)CC3)no2)C(C)C)cc1 (stereo partly drawn) [Example 68, (2S,4R)-4-hydroxy-1-((2R)-2-(3-((1-(4-(((S)-2-(2-hydroxyphenyl)-5,6,6a,7,9,10-hexahydro-8H-pyrazino[1′,2′:4,5]pyrazino[2,3-c]pyridazin-8-yl)methyl)azepan-1-yl)propan-2-yl)oxy)isoxazol-5-yl)-3-methylbutanoyl)-N-((S)-1-(4-(4-methylthiazol-5-yl)phenyl)ethyl)pyrrolidine-2-carboxamide]	< 100 nM	> 75%	100 to 1000 nM	> 75%	–
Cc1ncsc1-c1ccc([C@H](C)NC(=O)[C@@H]2C[C@@H](O)CN2C(=O)[C@@H](c2cc(OCCN3CC4CC(N5CCN6c7cc(-c8ccccc8O)nnc7NC[C@H]6C5)CC4C3)no2)C(C)C)cc1 (stereo partly drawn) [Example 47, (2S,4R)-4-hydroxy-1-((2R)-2-(3-(2-(5-((S)-2-(2-hydroxyphenyl)-5,6,6a,7,9,10-hexahydro-8H-pyrazino[1′,2′:4,5]pyrazino[2,3-c]pyridazin-8-yl)hexahydrocyclopenta[c]pyrrol-2(1H)-yl)ethoxy)isoxazol-5-yl)-3-methylbutanoyl)-N-((S)-1-(4-(4-methylthiazol-5-yl)phenyl)ethyl)pyrrolidine-2-carboxamide]	< 100 nM	> 75%	< 100 nM	> 75%	–
Cc1ncsc1-c1ccc([C@H](C)NC(=O)[C@@H]2C[C@@H](O)CN2C(=O)[C@@H](c2cc(O[C@@H](C)CN3CCC(CN4CCN5c6cc(-c7ccccc7O)nnc6NC[C@H]5C4)CC3)no2)C(C)C)cc1 [Example 100, (2S,4R)-4-hydroxy-1-((R)-2-(3-(((S)-1-(4-(((S)-2-(2-hydroxyphenyl)-5,6,6a,7,9,10-hexahydro-8H-pyrazino[1′,2′:4,5]pyrazino[2,3-c]pyridazin-8-yl)methyl)piperidin-1-yl)propan-2-yl)oxy)isoxazol-5-yl)-3-methylbutanoyl)-N-((S)-1-(4-(4-methylthiazol-5-yl)phenyl)ethyl)pyrrolidine-2-carboxamide]	< 100 nM	> 75%	< 100 nM	> 75%	–
CCC(CN1CCC(N2CCN3c4cc(-c5ccccc5O)nnc4NC[C@H]3C2)C1)Oc1cc(C(C(=O)N2C[C@H](O)C[C@H]2C(=O)N[C@@H](C)c2ccc(-c3scnc3C)cc2)C(C)C)on1 (stereo partly drawn) [Example 61, (2S,4R)-4-hydroxy-1-(2-(3-((1-(3-((S)-2-(2-hydroxyphenyl)-5,6,6a,7,9,10-hexahydro-8H-pyrazino[1′,2′:4,5]pyrazino[2,3-c]pyridazin-8-yl)pyrrolidin-1-yl)butan-2-yl)oxy)isoxazol-5-yl)-3-methylbutanoyl)-N-((S)-1-(4-(4-methylthiazol-5-yl)phenyl)ethyl)pyrrolidine-2-carboxamide]	< 100 nM	> 75%	< 100 nM	–	B (B = 50%< Dmax <=75%)
Cc1ncsc1-c1ccc([C@H](C)NC(=O)[C@@H]2C[C@@H](O)CN2C(=O)[C@@H](c2cc(OCCN3CCC(CN4C[C@@H]5CNc6nnc(-c7ccccc7O)cc6N5C[C@@H]4C)CC3)no2)C(C)C)cc1 [Example 101, (2S,4R)-4-hydroxy-1-((R)-2-(3-(2-(4-(((6aS,9S)-2-(2-hydroxyphenyl)-9-methyl-5,6,6a,7,9,10-hexahydro-8H-pyrazino[1′,2′:4,5]pyrazino[2,3-c]pyridazin-8-yl)methyl)piperidin-1-yl)ethoxy)isoxazol-5-yl)-3-methylbutanoyl)-N-((S)-1-(4-(4-methylthiazol-5-yl)phenyl)ethyl)pyrrolidine-2-carboxamide]	< 100 nM	> 75%	< 100 nM	> 75%	–

More lines, now with the values ahead:

DC50 [1]	Dmax [1]	DC50 [2]	Dmax [2]	Dmax % (SM4-HeLa) maximum SMARCA4 degradation within the concentrations tested [2]	Structure (SMILES)
< 100 nM	> 75%	100 to 1000 nM	> 75%	–	Cc1ncsc1-c1ccc([C@H](CO)NC(=O)[C@@H]2C[C@@H](O)CN2C(=O)C(c2cc(OCCN3CCC(CN4CCN5c6cc(-c7ccccc7O)nnc6NC[C@H]5C4)CC3)no2)C(C)C)cc1 (stereo partly drawn) [Example 46, (2S,4R)-4-hydroxy-N-((R)-2-hydroxy-1-(4-(4-methylthiazol-5-yl)phenyl)ethyl)-1-(2-(3-(2-(4-(((S)-2-(2-hydroxyphenyl)-5,6,6a,7,9,10-hexahydro-8H-pyrazino[1′,2′:4,5]pyrazino[2,3-c]pyridazin-8-yl)methyl)piperidin-1-yl)ethoxy)isoxazol-5-yl)-3-methylbutanoyl)pyrrolidine-2-carboxamide]
< 100 nM	> 75%	< 100 nM	> 75%	–	Cc1ncsc1-c1ccc([C@H](C)NC(=O)[C@@H]2C[C@@H](O)CN2C(=O)[C@@H](c2cc(OCCN3CCC(N4CCN5c6cc(-c7ccccc7O)nnc6NC[C@H]5C4)CC3C)no2)C(C)C)cc1 (stereo partly drawn) [Example 54, (2S,4R)-4-hydroxy-1-((2R)-2-(3-(2-(4-((S)-2-(2-hydroxyphenyl)-5,6,6a,7,9,10-hexahydro-8H-pyrazino[1′,2′:4,5]pyrazino[2,3-c]pyridazin-8-yl)-2-methylpiperidin-1-yl)ethoxy)isoxazol-5-yl)-3-methylbutanoyl)-N-((S)-1-(4-(4-methylthiazol-5-yl)phenyl)ethyl)pyrrolidine-2-carboxamide]
< 100 nM	–	100 to 1000 nM	–	–	Cc1ncsc1-c1ccc([C@H](C)NC(=O)[C@@H]2C[C@@H](O)CN2C(=O)[C@@H](c2cc(OCCN3CCC(N4CCC(N5CCN6c7cc(-c8ccccc8O)nnc7NC[C@H]6C5)CC4)C3)no2)C(C)C)cc1 (stereo partly drawn) [Example 26, (2S,4R)-4-hydroxy-1-((2R)-2-(3-(2-(3-(4-((S)-2-(2-hydroxyphenyl)-5,6,6a,7,9,10-hexahydro-8H-pyrazino[1′,2′:4,5]pyrazino[2,3-c]pyridazin-8-yl)piperidin-1-yl)pyrrolidin-1-yl)ethoxy)isoxazol-5-yl)-3-methylbutanoyl)-N-((S)-1-(4-(4-methylthiazol-5-yl)phenyl)ethyl)pyrrolidine-2-carboxamide]
< 100 nM	–	100 to 1000 nM	–	–	Cc1ncsc1-c1ccc([C@H](C)NC(=O)[C@@H]2C[C@@H](O)CN2C(=O)C(c2cc(O[C@H](C)C(=O)N3CCC(N4CCN5c6cc(-c7ccccc7O)nnc6NC[C@H]5C4)C3)no2)C(C)C)cc1 (stereo partly drawn) [Example 29, (2S,4R)-4-hydroxy-1-(2-(3-(((2R)-1-(3-((S)-2-(2-hydroxyphenyl)-5,6,6a,7,9,10-hexahydro-8H-pyrazino[1′,2′:4,5]pyrazino[2,3-c]pyridazin-8-yl)pyrrolidin-1-yl)-1-oxopropan-2-yl)oxy)isoxazol-5-yl)-3-methylbutanoyl)-N-((S)-1-(4-(4-methylthiazol-5-yl)phenyl)ethyl)pyrrolidine-2-carboxamide]
